Reference: article PMC8850458, “The AUTOTAC chemical biology platform for targeted protein degradation via the autophagy-lysosome system” (Nature Communications, 2022)
Values joined by “and” are separate entries in the source; they are usually repeats but may differ in a detail not shown here. Equal values may be shown once.

Assays:
[1] = target: high-molecular weight tau aggregates (Homo sapiens, UniProt P10636, P618L); assay: In vivo oligomerization (aggregation) assay in SH-SY5Y-tauP301L cells; type: cell-based; details: okadaic acid 15 nM, compound 0.1 μM, 24 h
Sequence of high-molecular weight tau aggregates (P10636 1-441 isoform P10636-8 P301L): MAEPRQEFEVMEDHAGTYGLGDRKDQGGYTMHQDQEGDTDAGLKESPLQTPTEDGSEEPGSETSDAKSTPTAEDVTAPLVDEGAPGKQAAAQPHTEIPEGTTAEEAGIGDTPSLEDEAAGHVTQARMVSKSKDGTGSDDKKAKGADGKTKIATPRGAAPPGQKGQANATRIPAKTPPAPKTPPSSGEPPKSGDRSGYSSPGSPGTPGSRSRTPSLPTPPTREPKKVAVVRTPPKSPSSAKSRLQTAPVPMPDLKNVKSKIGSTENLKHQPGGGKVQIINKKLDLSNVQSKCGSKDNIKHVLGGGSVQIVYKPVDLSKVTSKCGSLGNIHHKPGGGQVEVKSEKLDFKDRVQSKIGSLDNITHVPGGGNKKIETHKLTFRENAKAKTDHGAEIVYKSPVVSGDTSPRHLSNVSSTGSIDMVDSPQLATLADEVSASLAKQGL
Description: HEK293T cells were transfected with P301L-tau-EGFP plasmid using Lipofectamine 2000. HEK293T and SHYSY5Y-tau cells were treated with p62-ZZ ligands for 24 h. After incubation on ice for 30 min for supernatant collection, the cells were lysed by a cycle of freezing/thawing and centrifuged at 13,000 g for 10 min. Protein concentration was determined using the Pierce BCA Protein Assay Kit (Thermo Fisher Scientific). Non-reducing 4X LDS sample buffer was added to sample lysate, followed by boiling at 100 °C for 10 min and samples were loaded on a 3% stacking and 8% separating SDS-PAGE. Immunoblotting assays were carried out using anti-GFP antibody (Sigma) to visualize the oligomeric complexes of Tau.

[2] = target: T1, androgen receptor (AR) (Homo sapiens, UniProt P10275, T878A); assay: Western blot degradation of AR in LNCaP cells; type: cell-based; details: for DC50: LNCaP prostate cancer cells; for AR normalized to control, AVG % / AR normalized to GAPDH and to control, percentage: LncaP; for AR normalized to GAPDH and to control, percentage: single experiments, listed as Vinclo.-2204
T1 construct: Targeted autophagic degradation of endogenous oncoproteins by AUTOTAC; endogenous in cells; host or cells: LNCaP
T1 sequence (P10275 1-920 T878A): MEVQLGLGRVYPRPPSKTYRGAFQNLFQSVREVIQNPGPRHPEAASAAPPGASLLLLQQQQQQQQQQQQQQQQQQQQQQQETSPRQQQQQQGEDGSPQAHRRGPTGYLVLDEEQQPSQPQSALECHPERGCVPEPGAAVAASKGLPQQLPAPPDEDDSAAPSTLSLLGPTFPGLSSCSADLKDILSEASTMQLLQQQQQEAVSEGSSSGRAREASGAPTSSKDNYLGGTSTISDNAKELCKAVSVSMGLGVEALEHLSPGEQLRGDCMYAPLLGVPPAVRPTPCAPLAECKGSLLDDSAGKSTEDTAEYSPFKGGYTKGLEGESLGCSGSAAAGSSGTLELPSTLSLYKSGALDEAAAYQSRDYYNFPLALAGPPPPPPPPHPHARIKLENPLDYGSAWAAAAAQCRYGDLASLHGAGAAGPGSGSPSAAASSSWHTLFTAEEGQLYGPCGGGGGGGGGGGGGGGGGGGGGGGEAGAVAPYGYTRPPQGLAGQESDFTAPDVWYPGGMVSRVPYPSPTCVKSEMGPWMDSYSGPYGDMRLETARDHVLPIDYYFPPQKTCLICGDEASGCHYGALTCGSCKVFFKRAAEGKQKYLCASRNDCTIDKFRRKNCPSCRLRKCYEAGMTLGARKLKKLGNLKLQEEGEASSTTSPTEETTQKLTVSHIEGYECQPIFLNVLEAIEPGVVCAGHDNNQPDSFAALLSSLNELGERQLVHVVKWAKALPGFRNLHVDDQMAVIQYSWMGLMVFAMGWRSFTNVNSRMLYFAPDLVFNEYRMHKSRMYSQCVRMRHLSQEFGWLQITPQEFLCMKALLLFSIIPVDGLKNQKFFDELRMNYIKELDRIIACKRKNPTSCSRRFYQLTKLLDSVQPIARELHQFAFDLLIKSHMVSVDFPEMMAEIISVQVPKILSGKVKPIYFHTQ
Description: Adherent cells were washed with phosphate-buffered saline (PBS) and cell pellets were lysed in SDS-based sample buffer (277.8 mM Tris-HCI, pH 6.8, 4.4% LDS, 44.4% (v/v) glycerol) containing beta-mercaptoethanol. Alternatively, cell pellets or protein supernatants were lysed in 5X Laemmli sample buffer. Whole-cell lysates were separated using SDS-PAGE, and transferred onto polyvinyllidene difluoride membranes at 100 V for 2 h at 4 °C. The membrane was incubated with a blocking solution consisting 4% skim milk in PBS solution for 30 min at room temperature and incubated with primary antibodies overnight, followed by incubation with host-specific HRP-conjugated secondary antibodies (1:10000 dilution). For signal detection, the membrane was developed with a mixture of ECL solution (Thermo Fisher Scientific) using X-ray films. Densitometry of developed bands was measured and analyzed with ImageJ (NIH, Bethesda).

## O=C(CCCc1ccccc1)NCCOCCOCCOCCNCc1ccc(OCc2ccccc2)c(OCc2ccccc2)c1 [PBA-1105]
[1]
  high-molecular weight tau aggregates: effectively eliminated high-molecular weight tau aggregates

## C=CC(C)(O)C(=O)N(C(=O)NCCOCCOCCNCC(O)COc1ccc(OCCc2ccccc2)c(OCCc2ccccc2)c1)c1cc(Cl)cc(Cl)c1 (stereo not drawn) [VinclozolinM2-2204]
[2]
  DC50: ~200 nM
[2]; listed as Vinclozolin-2204
  DC50: 211 nM
[2]; 10 nM
  AR normalized to control, AVG %: 98.914%
  AR normalized to GAPDH and to control, percentage: 90.6238% and 111.624% and 94.4939%
[2]; 50 nM
  AR normalized to control, AVG %: 121.781%
  AR normalized to GAPDH and to control, percentage: 119.329% and 128.663% and 117.351%
[2]; 100 nM
  AR normalized to control, AVG %: 60.0788%
  AR normalized to GAPDH and to control, percentage: 61.0357% and 62.8026% and 56.3981%
[2]; 0.5 uM
  AR normalized to control, AVG %: 19.2601%
  AR normalized to GAPDH and to control, percentage: 14.6016% and 23.3958% and 19.7827%
[2]; 1 uM
  AR normalized to control, AVG %: 23.6569%
[2]; 2.5 uM
  AR normalized to control, AVG %: 22.3824%
[2]; 10 uM
  AR normalized to control, AVG %: 6.006%
  AR normalized to GAPDH and to control, percentage: 9.375% and 3.388% and 5.255%
